Data reported in US8158621B2, “Methods of treating or preventing autoimmune diseases with 2,4-pyrimidinediamine compounds” (Rigel Pharmaceuticals, Inc., priority 2002, dated 2012).
Where “and” joins values, the source holds several entries; their conditions need not be identical. Equal entries are not always repeated. Marks after values point to notes of the source that are not given here.

Columns and labels:
[1] = Mouse model of allergic asthma (ovalbumin); assay type: in vivo; settings: intranasal, 10 consecutive days (Day 7 through Day 16), 20 mg/kg
From the text: Mice are sensitized to ovalbumin (chicken protein) in the presence of an adjuvant (Alum) by the intraperitoneal route on day 0 and day 7. One week later, mice are challenged intranasally with ovalbumin on Days 14, 15 and 16 (more stringent model) or on Day 14 (less stringent model). This sensitization and challenge regimen leads to airway hyperresponsiveness and inflammation in the lungs, which are two dominant characteristics of human allergic asthma. In the mouse model, the in vivo airway responses are measured using a whole body plethysmograph which determines the PENH (enhanced Pause, Buxco Electronics). The PENH is a dimensionless value comprised of the peak inspiratory flow (PIF), peak expiratory flow (PEF), time of inspiration, time of expiration and relaxation time, and is considered a validated parameter of airway responsiveness. Responses to allergen challenge (OVA) are compared with animals challenged with saline only. Twenty-four hours after challenge, mice are exposed to increasing doses of methacholine (muscarinic receptor agonist) which results in smooth muscle contraction. […] In addition, a cellular infiltrate in the airway is observed in ovalbumin challenged mice when compared with the saline challenged mice. This cellular infiltrate is mainly characterized by eosinophils, but a smaller influx of neutrophils and mononuclear cells is also present. […]

[2] = in vitro chromosomal aberration assay
[3] = 14-day repeat-dose intranasal toxicity study in New Zealand White rabbits; assay type: in vivo; settings: 14-day intranasal
Protocol: A 14-day repeat-dose intranasal toxicity study in New Zealand White rabbits was performed at doses of 1.7, 3.4 or 5.0 mg/kg/day. In life parameters included: clinical observations, body weights, food consumption, ophthalmology, hematology, clinical chemistry, gross necropsy, organ weights, toxicokinetic assessments and histopathology (including the nasal cavity).

[4] = system: basophil cells (human peripheral blood); assay: Basophil dustmite activation: histamine release assay; assay type: cell-based; settings: basophils, dust mite activation
Protocol: The basophil activation assay was carried out using whole human peripheral blood from donors allergic to dust mites with the majority of the red blood cells removed by dextran sedimentation. Human peripheral blood was mixed 1:1 with 3% dextran T500 and RBCs were allowed to settle for 20-25min. The upper fraction was diluted with 3 volumes of D-PBS and cells were spun down for 10 min at 1500 rpm, RT. Supernatant was aspirated and cells were washed in an equal volume MT-buffer. Finally, cells were resuspended in MT-buffer containing 0.5% DMSO in the original blood volume. 80 uL cells were mixed with 20 uL compound in the presence of 0.5% DMSO, in triplicate, in a V-bottom 96-well tissue culture plate. A dose range of 8 compound concentrations was tested resulting in a 10-point dose response curve including maximum (stimulated) and minimum (unstimulated) response. […] The cells were stimulated for 30 minutes at 37° C., 5% CO2. The plate was spun for 10 min at 1500 rpm at room temperature and 80 uL the supernatant was harvested for histamine content analysis using the histamine ELISA kit supplied by Immunotech. The ELISA was performed according to supplier's instructions.

[5] = Non-clinical safety studies of R921218 (summary); design: species or system rodents and non-rodents; settings: in vivo
From the text: A short discussion of key toxicology studies is provided.

[6] = 14-day repeat-dose intranasal toxicity study in Cynomolgus monkeys; assay type: in vivo; settings: 14-day intranasal
Protocol: A 14-day repeat-dose intranasal toxicity study in Cynomolgus monkeys was performed at doses of 2.1, 4.5 or 6.3 mg/kg/day. In life parameters included: clinical observations, body weights, food consumption, ophthalmology, blood pressure, electrocardiography, hematology, clinical chemistry, urinalysis, immunotoxicological assessment, gross necropsy, organ weights, toxicokinetic assessments and histopathology (including the nasal cavity).

CHMC cells = assay: anti-IgE-induced Ca2+ flux in CHMC cells; assay type: cell-based, human; settings: 10 μM
[7] = Non-GLP pilot oral toxicity studies in the mouse
Protocol: Several non-GLP pilot toxicity studies have been conducted in rodents. […] In a 14-day oral toxicity study in the mouse was conducted with doses of 100, 300 and 1000 mg/kg.

[8] = Mouse experimental autoimmune encephalomyelitis (EAE); assay type: in vivo; settings: for mice relapsed: from day of immunization
Protocol: In the SJL murine model of EAE, each mouse is sensitized with PLP/CFA. […] In a treatment protocol, at onset of disease, animals are separated to achieve groups with a similar mean clinical score at onset and administered vehicle or various dose frequencies of test articles via oral gavage. In both protocols, clinical scores are monitored daily, and body weights are measured twice weekly.

[9] = Oral bioavailability / pharmacokinetics in rats; settings: rat, in vivo
Protocol: Over 50 2,4-pyrimidinediamine compounds of the invention were tested for oral bioavailability. For the study, compounds were dissolved in various vehicles (e.g. PEG 400 solution and CMC suspension) for intravenous and oral dosing in the rats. Following administration of the drug, plasma samples were obtained and extracted. The plasma concentrations of the compounds were determined by high performance liquid chromatography/tandem mass spectrometry (LC/MS/MS) methods. Pharmacokinetic analyses were performed based on the plasma concentration data. The pharmacokinetic parameters of interest include Clearance (CL), Volume of distribution at steady-state (Vss), terminal half-life (t1/2), and oral bioavailability (% F).

[10] = 100 mg/kg 1x/day starting on day of immunization
[11] = 100 mg/kg 2x/day starting on day of immunization
[12] = 200 mg/kg 2x/day starting on day of onset

SMILES: CNC(=O)COc1cccc(Nc2ncc(F)c(Nc3ccc4c(n3)NC(=O)CO4)n2)c1 [Compound R921304]
- ovalbumin-induced airway hyperresponsiveness to methacholine [1]: able to inhibit

SMILES: CNC(=O)COc1cccc(Nc2ncc(F)c(Nc3ccc4c(c3)NCCO4)n2)c1 [Compound R921219]
- clastogenic potential, in vitro chromosomal aberration assay [2]: not found to possess elastogenic potential

SMILES: Oc1cccc(Nc2ncc(F)c(Nc3cccc(O)c3)n2)c1 [Compound R921218]
- NOAEL (no observed adverse effect level) [3]: 5.0 mg/kg/day
- IC50 [4]: 302 nM
- genetic toxicology testing [5]: no evidence for mutagenic or elastogenic potential
- NOAEL (no observed adverse effect level) [6]: 6.3 mg/kg/day
- anti-IgE-induced Ca2+ flux (CHMC cells): inhibited

SMILES: Nc1cccc(Nc2ncc(F)c(Nc3cccc(N)c3)n2)c1 [Compound R921302]
- NOAEL (no observed adverse effect level) ([7]; 14-day oral toxicity study): 100 mg/kg
- tolerability, 100 mg/kg q.d. or b.i.d. ([7]; in vivo, po, 100 mg/kg): well tolerated
- findings at 300 mg/kg ([7]; in vivo, po, 300 mg/kg): histopathological changes in the vulva
- tolerability, 300 mg/kg q.d. or b.i.d. ([7]; in vivo, po, 300 mg/kg): not tolerated
- tolerability, 1000 mg/kg ([7]; in vivo, po, 1000 mg/kg): not tolerated
- tolerability, oral 1000 mg/kg ([7]; in vivo, po, 1000 mg/kg): tolerated
- Incidence [8, 10]: 10/10
- Mortality [8, 10]: 0/10
- Onset [8, 10]: 12.3 ± 0.7
- Peak (mean clinical score) [8, 10]: 4.3+1.3 and 4.3 ± 1.3
- Incidence [8, 11]: 10/10
- Mortality [8, 11]: 3/10^a
- Onset [8, 11]: 13.0 ± 1.2^b
- Peak (mean clinical score) [8, 11]: 4.3+1.4 and 4.3 ± 1.4
- mice relapsed ([8]; 100 mg/kg twice daily group): None
- mice relapsed ([8]; 100 mg/kg/day group): 3/8
- Incidence [8, 12]: 12/12
- Mean score at treatment [8, 12]: 3.4 ± 1.6
- Mortality [8, 12]: 1/12
- Peak [8, 12]: 4.3 ± 0.7
- Relapses [8, 12]: 2/12
- metabolic stability in pharmacokinetics study [9]: most metabolically stable compound
